Measurements taken from ChEMBL document CHEMBL1201862, “PubChem BioAssay data set” (2004).
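Exposure lasted 48 hours, with cells grown in 96-well plates and compounds tested at five concentrations. At the GI50, growth is halved.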 Active and inactive are the calls of the source. No stated cut-off is given here; in the data, active = GI50 up to about 1.1 µM and inactive = higher.

Experiments:
Assay in all cases: DTP human tumour cell line panel, 48 h
[1] = system: 786-0
[2] = system: HCC 2998
[3] = system: SK-OV-3
[4] = system: IGROV-1
[5] = system: OVCAR-4
[6] = system: HL-60
[7] = system: UACC-257
[8] = system: SN12C
[9] = system: Malme-3M
[10] = system: HT-29
[11] = system: A549
[12] = system: UO-31
[13] = system: OVCAR-5
[14] = system: NCI-H226
[15] = system: COLO 205
[16] = system: SF-295
[17] = system: U-251
[18] = system: SK-MEL-5
[19] = system: MCF7

Compound: NC(=O)N/N=C(/c1nc2ccc([N+](=O)[O-])cc2nc1O)C(O)c1ccco1 (configuration not stated)
- GI50 [1]: 97.5 µM (inactive)
- GI50 [2]: 31 µM (inactive)
- GI50 [3]: > 100 µM (inactive)
- GI50 [4]: 73.3 µM (inactive)
- GI50 [5]: > 100 µM (inactive)
- GI50 [6]: 13.1 µM (inactive)
- GI50 [7]: > 100 µM (inactive)
- GI50 [8]: 17.4 µM (inactive)
- GI50 [9]: > 100 µM (inactive)
- GI50 [10]: 46.2 µM (inactive)
- GI50 [11]: 93.8 µM (inactive)
- GI50 [12]: 53.6 µM (inactive)
- GI50 [13]: > 100 µM (inactive)
- GI50 [14]: > 100 µM (inactive)
- GI50 [15]: 40 µM (inactive)
- GI50 [16]: 80.7 µM (inactive)
- GI50 [17]: 54.2 µM (inactive)
- GI50 [18]: 30 µM (inactive)

Compound: CCOC(=O)C(C(=O)OCC)S(C)(=O)=O
- GI50 [1]: > 100 µM (inactive)
- GI50 [2]: > 100 µM (inactive)
- GI50 [3]: > 100 µM (inactive)
- GI50 [4]: > 100 µM (inactive)
- GI50 [5]: > 100 µM (inactive)
- GI50 [6]: > 100 µM (inactive)
- GI50 [7]: > 100 µM (inactive)
- GI50 [8]: > 100 µM (inactive)
- GI50 [9]: > 100 µM (inactive)
- GI50 [10]: > 100 µM (inactive)
- GI50 [11]: > 100 µM (inactive)
- GI50 [12]: > 100 µM (inactive)
- GI50 [13]: > 100 µM (inactive)
- GI50 [14]: > 100 µM (inactive)
- GI50 [15]: > 100 µM (inactive)
- GI50 [16]: > 100 µM (inactive)
- GI50 [17]: > 100 µM (inactive)
- GI50 [18]: > 100 µM (inactive)

Compound: OCCC/N=C1N=C(Cl)/C(=C\c2ccccc2)N\1
- GI50 [1]: > 100 µM (inactive)
- GI50 [2]: > 100 µM (inactive)
- GI50 [3]: > 100 µM (inactive)
- GI50 [4]: > 100 µM (inactive)
- GI50 [5]: > 100 µM (inactive)
- GI50 [6]: > 100 µM (inactive)
- GI50 [19]: > 100 µM (inactive)
- GI50 [7]: > 100 µM (inactive)
- GI50 [8]: > 100 µM (inactive)
- GI50 [9]: > 100 µM (inactive)
- GI50 [10]: > 100 µM (inactive)
- GI50 [11]: > 100 µM (inactive)
- GI50 [12]: > 100 µM (inactive)
- GI50 [13]: > 100 µM (inactive)
- GI50 [14]: > 100 µM (inactive)
- GI50 [15]: > 100 µM (inactive)
- GI50 [16]: > 100 µM (inactive)
- GI50 [17]: > 100 µM (inactive)
- GI50 [18]: > 100 µM (inactive)

Compound: COc1cc2c([C@@H](OC(=O)c3ccccc3)c3ccc4c(c3)OCO4)nccc2c(OC)c1OC
- GI50 [1]: > 100 µM (inactive)
- GI50 [2]: 92 µM (inactive)
- GI50 [3]: > 100 µM (inactive)
- GI50 [4]: > 100 µM (inactive)
- GI50 [5]: 18.7 µM (inactive)
- GI50 [6]: 16.4 µM (inactive)
- GI50 [7]: 38.4 µM (inactive)
- GI50 [8]: 38.5 µM (inactive)
- GI50 [9]: 64.6 µM (inactive)
- GI50 [10]: 67.3 µM (inactive)
- GI50 [11]: 17.3 µM (inactive)
- GI50 [12]: 2.7 µM (inactive)
- GI50 [13]: 76.9 µM (inactive)
- GI50 [14]: 23.5 µM (inactive)
- GI50 [15]: 78.7 µM (inactive)
- GI50 [16]: 44.3 µM (inactive)
- GI50 [17]: 61.7 µM (inactive)
- GI50 [18]: 17.9 µM (inactive)

Compound: CN(C)CCNC(=O)c1ccc(Cl)c2c(Nc3ccc(S(N)(=O)=O)cc3)c3ccccc3nc12
- GI50 [1]: 1.55 µM (inactive)
- GI50 [2]: 3.03 µM (inactive)
- GI50 [3]: 2.22 µM (inactive)
- GI50 [4]: 2.72 µM (inactive)
- GI50 [5]: 1.93 µM (inactive)
- GI50 [6]: 0.553 µM (active)
- GI50 [7]: 3.44 µM (inactive)
- GI50 [8]: 1.12 µM (active)
- GI50 [9]: 3.46 µM (inactive)
- GI50 [10]: 1.2 µM (inactive)
- GI50 [11]: 2.64 µM (inactive)
- GI50 [12]: 2.38 µM (inactive)
- GI50 [13]: 2.95 µM (inactive)
- GI50 [14]: 1.45 µM (inactive)
- GI50 [15]: 0.61 µM (active)
- GI50 [16]: 3.41 µM (inactive)
- GI50 [17]: 2.16 µM (inactive)
- GI50 [18]: 2.49 µM (inactive)

Compound: CC12CCC([C@H](N3CCOCC3)/C1=N\OCCN1CCCC1)C2(C)C (some centres not stated)
- GI50 [1]: > 100 µM (inactive)
- GI50 [2]: > 100 µM (inactive)
- GI50 [3]: > 100 µM (inactive)
- GI50 [4]: > 100 µM (inactive)
- GI50 [5]: > 100 µM (inactive)
- GI50 [6]: > 100 µM (inactive)
- GI50 [7]: > 100 µM (inactive)
- GI50 [8]: > 100 µM (inactive)
- GI50 [9]: > 100 µM (inactive)
- GI50 [10]: > 100 µM (inactive)
- GI50 [11]: > 100 µM (inactive)
- GI50 [12]: > 100 µM (inactive)
- GI50 [13]: > 100 µM (inactive)
- GI50 [14]: > 100 µM (inactive)
- GI50 [15]: > 100 µM (inactive)
- GI50 [16]: > 100 µM (inactive)
- GI50 [17]: > 100 µM (inactive)
- GI50 [18]: > 100 µM (inactive)

Compound: CC(=O)O[C@H]1CCC2[C@@H]3CCC4c5nonc5CC[C@]4(C)C3CC[C@@]21C (some centres not stated)
- GI50 [1]: > 10 µM (inactive)
- GI50 [2]: > 10 µM (inactive)
- GI50 [3]: > 10 µM (inactive)
- GI50 [4]: > 10 µM (inactive)
- GI50 [5]: > 10 µM (inactive)
- GI50 [6]: > 10 µM (inactive)
- GI50 [7]: > 10 µM (inactive)
- GI50 [8]: > 10 µM (inactive)
- GI50 [9]: > 10 µM (inactive)
- GI50 [10]: > 10 µM (inactive)
- GI50 [11]: > 10 µM (inactive)
- GI50 [12]: > 10 µM (inactive)
- GI50 [13]: > 10 µM (inactive)
- GI50 [14]: > 10 µM (inactive)
- GI50 [15]: > 10 µM (inactive)
- GI50 [16]: > 10 µM (inactive)
- GI50 [17]: > 10 µM (inactive)
- GI50 [18]: > 10 µM (inactive)
